In US20230072421A1, “TARGETED RADIOPHARMACEUTICALS FOR THE DIAGNOSIS AND TREATMENT OF PROSTATE CANCER” (Bayer AS, priority 2019, published 2023):

Target: T1, PSMA-expressing LNCaP cells (Homo sapiens, UniProt Q04609)
T1 construct: PSMA-expressing LNCaP cells; endogenous in cells; host or cells: LNCaP
Test: Binding competition assay against 3H-PSMA-617 on LNCaP cells
Settings: for competition against 3H-PSMA-617 on PSMA-expressing LNCaP cells (in words): comparison between examples
Procedure: Cells were incubated at 37° C. and 5% CO2 over night. […] After addition of the compounds in growth media the cells were swiveled slightly on a shaker mixing for 10 min followed by incubation for 2 h at 37° C., 5% C02. Following the incubation time the supernatant was removed by pipetting and cells were washed twice with ice cold PBS (total of 800 μl). Cells were lysed in 500 μl of 0.3M NaOH (PanReac AppliChem ITW Reagents) by vigorous shaking for 15 min and the cell lysated pipetted into scintillator tubes (S207-[…]® Scintillation Vials 6.5 ml #S207, Simport). In the following the wells were washed with 500 μl PBS and the washing PBS added to the corresponding samples in the sincitallator tubes. To each sample in the scintillator tubes 4 mL of Ultima Gold liquid scintillation cocktail (Sigma-Aldrich #L8286) was added and the samples let stand for at least 30 min. Thereafter radioactivity was counted in a Tri-Carb Liquid Scinzillation Analyzer (Perkin Elmer).

[1] = LNCaP cells, 10 nM 3H-PSMA-617, competing non-radiolabeled compound 10 nM, 2 h at 37° C., triplicates
[2] = LNCaP cells, 10 nM 3H-PSMA-617, competing non-radiolabeled compound 100 nM, 2 h at 37° C., triplicates

T1 sequence (Q04609 whole entry): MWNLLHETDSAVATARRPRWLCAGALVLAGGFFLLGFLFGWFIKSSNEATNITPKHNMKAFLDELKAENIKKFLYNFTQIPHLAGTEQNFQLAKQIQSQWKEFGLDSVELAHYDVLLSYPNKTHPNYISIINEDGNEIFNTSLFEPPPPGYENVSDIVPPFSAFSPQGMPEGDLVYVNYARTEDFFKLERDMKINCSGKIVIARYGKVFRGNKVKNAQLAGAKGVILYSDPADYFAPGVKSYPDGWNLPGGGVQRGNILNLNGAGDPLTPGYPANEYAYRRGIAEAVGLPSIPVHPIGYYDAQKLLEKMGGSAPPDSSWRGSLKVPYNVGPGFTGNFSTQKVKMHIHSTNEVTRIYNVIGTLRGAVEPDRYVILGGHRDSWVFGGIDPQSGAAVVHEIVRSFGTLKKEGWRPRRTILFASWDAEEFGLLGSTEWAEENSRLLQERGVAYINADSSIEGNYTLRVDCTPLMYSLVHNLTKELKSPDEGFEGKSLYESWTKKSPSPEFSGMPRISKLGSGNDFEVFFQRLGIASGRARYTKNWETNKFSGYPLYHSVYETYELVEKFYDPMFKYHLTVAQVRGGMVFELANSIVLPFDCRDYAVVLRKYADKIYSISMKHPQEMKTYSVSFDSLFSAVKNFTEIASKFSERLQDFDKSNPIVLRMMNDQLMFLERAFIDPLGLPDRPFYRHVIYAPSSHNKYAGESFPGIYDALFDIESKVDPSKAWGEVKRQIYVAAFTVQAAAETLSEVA

remaining activity at 0.01 µM [1]	remaining activity at 0.1 µM [2]	Structure (SMILES)	competition against 3H-PSMA-617 on PSMA-expressing LNCaP cells (in words)	% remaining 3H-PSMA-617 @ 10 nM (mean) [1]	% remaining 3H-PSMA-617 @ 100 nM (mean) [2]
92%	29%	O=C(O)CC[C@H](NC(=O)N[C@@H](CCCCNC(=O)[C@H](Cc1cc2ccccc2cn1)NC(=O)[C@H]1CC[C@H](CNC(=O)CN2CCN(CC(=O)O)CCN(CC(=O)O)CCN(CC(=O)O)CC2)CC1)C(=O)O)C(=O)O [Example 36-B, N^6-{3-(isoquinolin-3-yl)-N-[(1r,4S)-4-({2-[4,7,10-tris(carboxymethyl)-1,4,7,10-tetraazacyclododecan-1-yl]acetamido}methyl)cyclohexane-1-carbonyl]-L-alanyl}-N^2-{[(1S)-1,3-dicarboxypropyl]carbamoyl}-L-lysine]			
50%	9%	NCc1ccc(C(=O)N[C@@H](Cc2ccc3ccccc3n2)C(=O)NCCCC[C@H](NC(=O)N[C@@H](CCC(=O)O)C(=O)O)C(=O)O)nc1 [Example 34-A, N^6—{N-[5-(aminomethyl)pyridine-2-carbonyl]-3-(quinolin-2-yl)-L-alanyl}-N^2-{[(1S)-1,3-dicarboxypropyl]carbamoyl}-L-lysine]	improved competition		
93%	87%	NC[C@H]1CC[C@H](C(=O)N[C@H](Cc2ccc3cccnc3c2)C(=O)NCCCC[C@H](NC(=O)N[C@@H](CCC(=O)O)C(=O)O)C(=O)O)CC1 [Example 45-A, (3R,10S,14S)-1-[(1r,4S)-4-(aminomethyl)cyclohexyl]-1,4,12-trioxo-3-[(quinolin-7-yl)methyl]-2,5,11,13-tetraazahexadecane-10,14,16-tricarboxylic acid]			
100%	88%	NC[C@H]1CC[C@H](C(=O)N[C@@H](CCCc2ccccc2)C(=O)NCCCC[C@H](NC(=O)N[C@@H](CCC(=O)O)C(=O)O)C(=O)O)CC1 [Example 3-A, N^6—{N-[(1r,4S)-4-(aminomethyl)cyclohexane-1-carbonyl]-5-phenyl-L-norvalyl}-N^2-{[(1S)-1,3-dicarboxypropyl]carbamoyl}-L-lysine]			
88%	82%	NC[C@H]1CC[C@H](C(=O)N[C@@H](CCCNC(=O)c2cnccn2)C(=O)NCCCC[C@H](NC(=O)N[C@@H](CCC(=O)O)C(=O)O)C(=O)O)CC1 [Example 20-A, N^6—{N^2-[(1r,4S)-4-(aminomethyl)cyclohexane-1-carbonyl]-N^5-(pyrazine-2-carbonyl)-L-ornithyl}-N^2-{[(1S)-1,3-dicarboxypropyl]carbamoyl}-L-lysine]			
66%	16%	NCc1ccc(C(=O)N[C@@H](Cc2ccc3ccccc3c2)C(=O)NCCCC[C@H](NC(=O)N[C@@H](CCC(=O)O)C(=O)O)C(=O)O)cc1 [Example 24-A, (3S,10S,14S)-1-[4-(aminomethyl)phenyl]-3-[(naphthalen-2-yl)methyl]-1,4,12-trioxo-2,5,11,13-tetraazahexadecane-10,14,16-tricarboxylic acid]			
73%	74%	NC[C@H]1CC[C@H](C(=O)N[C@@H](Cc2ccc3ncccc3c2)C(=O)NCCCC[C@H](NC(=O)N[C@@H](CCC(=O)O)C(=O)O)C(=O)O)CC1 [Example 48-A, (3S,10S,14S)-1-[trans-4-(aminomethyl)cyclohexyl]-1,4,12-trioxo-3-[(quinolin-6-yl)methyl]-2,5,11,13-tetraazahexadecane-10,14,16-tricarboxylic acid]			
33%	6%	NCc1ccc(C(=O)N[C@@H](Cc2ccc3ccccc3c2)C(=O)NCCCC[C@H](NC(=O)N[C@@H](CCC(=O)O)C(=O)O)C(=O)O)cn1 [Example 26-A, (3S,10S,14S)-1-[6-(aminomethyl)pyridin-3-yl]-3-[(naphthalen-2-yl)methyl]-1,4,12-trioxo-2,5,11,13-tetraazahexadecane-10,14,16-tricarboxylic acid]	improved competition in comparison to the cyclohexyl examples 1-A and 1-B		
		O=C(O)CC[C@H](NC(=O)N[C@@H](CCCCNC(=O)[C@H](Cc1ccc2ccccc2c1)NC(=O)[C@H]1CC[C@H](CNC(=O)C[N+]23CC[N+]45CC[N+]67CC[N+]8(CC2)CC(=O)[O][Th]3486([O]C(=O)C5)[O]C(=O)C7)CC1)C(=O)O)C(=O)O (stereo partly drawn) [Example 1-B-232Th, {3-[(naphthalen-2-yl)methyl]-1,4,12-trioxo-1-{4-[(2-{4,7,10-tris[(carboxy-kappaO)methyl]-1,4,7,10-tetraazacyclododecan-1-yl-kappa^4N^1,N^4,N^7,N^10}acetamido)methyl]cyclohexyl}-2,5,11,13-tetraazahexadecane-10,14,16-tricarboxylato(4−)}thorium(3+)]		71%	12%
66%	72%	COc1c(C[C@@H](NC(=O)[C@H]2CC[C@H](CN)CC2)C(=O)NCCCC[C@H](NC(=O)N[C@@H](CCC(=O)O)C(=O)O)C(=O)O)ccc2ccccc12 [Example 33-A, (3R,10S,14S)-1-[(1r,4S)-4-(aminomethyl)cyclohexyl]-3-[(1-methoxynaphthalen-2-yl)methyl]-1,4,12-trioxo-2,5,11,13-tetraazahexadecane-10,14,16-tricarboxylic acid]			
88%	35%	O=C(O)CC[C@H](NC(=O)N[C@@H](CCCCNC(=O)[C@@H](Cc1cnc2ccccc2c1)NC(=O)c1ccc(CNC(=O)CN2CCN(CC(=O)O)CCN(CC(=O)O)CCN(CC(=O)O)CC2)cn1)C(=O)O)C(=O)O [Example 32-B, N^6-{3-(quinolin-3-yl)-N-[5-({2-[4,7,10-tris(carboxymethyl)-1,4,7,10-tetraazacyclododecan-1-yl]acetamido}methyl)pyridine-2-carbonyl]-D-alanyl}-N^2-{[(1S)-1,3-dicarboxypropyl]carbamoyl}-L-lysine]			
136%	96%	O=C(O)CC[C@H](NC(=O)N[C@@H](CCCCNC(=O)[C@H](Cc1ccc2ccccc2c1)NC(=O)NCC1CCNCC1)C(=O)O)C(=O)O [Example 30-A, (5S,12S,16S)-5-[(naphthalen-2-yl)methyl]-3,6,14-trioxo-1-(piperidin-4-yl)-2,4,7,13,15-pentaazaoctadecane-12,16,18-tricarboxylic acid]			
78%	66%	Cn1ccc(C(=O)NCCN(CCNC(=O)c2ccn(C)c(=O)c2O)CC(Cc2ccc(NC(=O)CCC(=O)N[C@H](CCCNC(=N)N)C(=O)N[C@H](CCCNC(=N)N)C(=O)NC[C@H]3CC[C@H](C(=O)N[C@@H](Cc4ccc5ccccc5c4)C(=O)NCCCCC(NC(=O)N[C@@H](CCC(=O)O)C(=O)O)C(=O)O)CC3)cc2)CN(CCNC(=O)c2ccn(C)c(=O)c2O)CCNC(=O)c2ccn(C)c(=O)c2O)c(O)c1=O (stereo partly drawn) [Example 46-E]			

Structure (SMILES)	remaining activity at 0.01 µM [1]	remaining activity at 0.1 µM [2]	competition against 3H-PSMA-617 on PSMA-expressing LNCaP cells (in words)	% remaining 3H-PSMA-617 @ 10 nM (mean) [1]	% remaining 3H-PSMA-617 @ 100 nM (mean) [2]
O=C(O)CC[C@H](NC(=O)N[C@@H](CCCCNC(=O)[C@H](Cc1ccc2ccccc2c1)NC(=O)c1ccc(CNC(=O)CN2CCN(CC(=O)O)CCN(CC(=O)O)CCN(CC(=O)O)CC2)cc1)C(=O)O)C(=O)O [Example 24-B, (3S,10S,14S)-3-[(naphthalen-2-yl)methyl]-1,4,12-trioxo-1-[4-({2-[4,7,10-tris(carboxymethyl)-1,4,7,10-tetraazacyclododecan-1-yl]acetamido}methyl)phenyl]-2,5,11,13-tetraazahexadecane-10,14,16-tricarboxylic acid]	59%	6%			
